Data taken from patent publication US9422292B2, “Bromodomain inhibitors and uses thereof” (Constellation Pharmaceuticals, Inc., priority 2011, dated 2016).

What was measured:
[1] = biological target: T1, BRD4 (BD1) (Homo sapiens, UniProt O60885); test: BRD4 AlphaLisa binding assay; settings: BRD4 (BD1) 30 nM, biotinylated H4-tetraacetyl peptide 200 nM; read-out: BRD4 AlphaLisa
T1 construct: His; made in house
Summary of the method: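 BRD4 (BD1) (30 nM final) with peptide (200 nM final) in 40 mM HEPES pH 7.0, 40 mM NaCl, 1 mM DTT, 0.01% BSA, 0.008% Brij-35, 1.2% DMSO, 20 min at RT with compound.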

[2] = test system: MYC mRNA in MV4:11 (AML) cells; test: cMyc RNA quantification assay (QuantiGene) in MV4:11 cells; format: cell-based; settings: Homo sapiens, 4 h, QuantiGene 2.0
Summary of the method: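 Cells exposed to a range of compound concentrations for 4 h, then MYC mRNA quantified by QuantiGene 2.0 branched-DNA assay. Biological duplicates averaged and normalized to DMSO vehicle, expressed as percent MYC mRNA.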

[3] = test system: IL-6 secretion in THP-1 cells; test: Cell-based IL-6 quantification assay (ELISA, Mesoscale) in LPS-treated THP-1 cells; settings: Homo sapiens, LPS 4 μg/mL, 16 h, ELISA value/CellTiter-Glo ratio
Summary of the method: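 THP-1 cells (100,000/well, RPMI-10% FBS) stimulated with 4 μg/mL LPS and incubated 16 h with compound at various concentrations. Supernatant IL-6 measured by Mesoscale ELISA, normalized to CellTiter-Glo cell content; % inhibition of secretion from the ratio.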

SMILES | IC50 [1] | IC50 [2] | IC50 [3]
Cc1nnc2n1-c1ccc(-c3ccc(N)nc3)cc1N(c1ccc(C(F)(F)F)cc1)CC2 [Compound 19, 4H-[1,2,4]triazolo[4,3-a][1,5]benzodiazepine,5,6-dihydro-1-methyl-8-(6-amino-pyridin-3-yl)-6-(4-trifluoromethyl-phenyl)] | < 100 nM | 100 to 1000 nM | < 100 nM
Cc1nnc2n1-c1ccc(S(C)(=O)=O)cc1N(c1ccc(Cl)cc1)C[C@H]2C [Compound 60, 4H-[1,2,4]Triazolo[4,3-a][1,5]benzodiazepine,5,6-dihydro-(4R)-1,4-dimethyl-8-methylsulfonyl-6-(4-chloro-phenyl)] | 100 to 1000 nM | 1000 to 10000 nM | 100 to 1000 nM

Second part, the molecule after the results:

IC50 [1] | IC50 [2] | IC50 [3] | SMILES
100 to 1000 nM | 1000 to 10000 nM | 100 to 1000 nM | Cc1nnc2n1-c1ccc(-c3ccc(N)nc3)cc1N(c1ccc(Cl)cc1)C[C@@H]2C [Compound 27, (S)-4H-[1,2,4]triazolo[4,3-a][1,5]benzodiazepine, 5,6-dihydro-1,4-dimethyl-8-(6-aminopyridin-3-yl)-6-(4-chloro-phenyl)]
< 100 nM | 1000 to 10000 nM | > 1000 nM | Cc1nnc2n1-c1ccc(-c3cnn(CC(N)=O)c3)cc1N(c1ccc(C#N)cc1)C[C@H]2C [Compound 81, (R)-2-(4-(6-(4-cyanophenyl)-1,4-dimethyl-5,6-dihydro-4H-benzo[b][1,2,4]triazolo[4,3-d][1,4]diazepin-8-yl)-1H-pyrazol-1-yl)acetamide]
< 100 nM | < 100 nM | < 100 nM | Cc1nnc2n1-c1ccc(-c3cnn(C)n3)cc1N(c1ccc(C#N)cc1)C[C@H]2C [Compound 75, (S)-4H-[1,2,4]Triazolo[4,3-a][1,5]benzodiazepine, 5,6-dihydro-1,4-dimethyl-8-(2-methyl-2H-1,2,3-triazole-4-yl)-6-(4-cyano-phenyl)]
